Experimental data reported in the NIST ThermoML archive (doi:10.1021/je400459y).

Assay: mn = molality of the nth substance listed, in mol/kg
Conditions: Liquid

[Cl-].[Na+] [sodium chloride] + O
Conditions | mass density [kg/m3]
332.77 K, 16012 kPa, m1 = 1 | 1028.34
332.83 K, 10001 kPa, m1 = 1 | 1025.96
332.88 K, 12003 kPa, m1 = 1 | 1026.78
332.96 K, 18010 kPa, m1 = 1 | 1029.12
333.11 K, 14007 kPa, m1 = 1 | 1027.52
333.13 K, 10014 kPa, m1 = 2 | 1060.45
333.13 K, 12007 kPa, m1 = 3 | 1090.92
333.13 K, 14002 kPa, m1 = 3 | 1091.64
333.16 K, 18002 kPa, m1 = 3 | 1093.07
333.17 K, 15999 kPa, m1 = 2 | 1062.63
333.18 K, 18011 kPa, m1 = 2 | 1063.39
333.19 K, 10002 kPa, m1 = 3 | 1089.97
333.19 K, 12008 kPa, m1 = 2 | 1061.17
333.2 K, 14003 kPa, m1 = 2 | 1061.9
333.21 K, 16006 kPa, m1 = 3 | 1092.36
333.52 K, 15999 kPa, m1 = 4 | 1123.12
333.54 K, 12004 kPa, m1 = 4 | 1121.22
333.55 K, 18008 kPa, m1 = 4 | 1124.3
333.56 K, 14008 kPa, m1 = 4 | 1122.36
333.59 K, 10007 kPa, m1 = 4 | 1120.38
352.11 K, 10000 kPa, m1 = 4 | 1109.5
352.14 K, 18001 kPa, m1 = 4 | 1112.67
352.16 K, 12008 kPa, m1 = 4 | 1109.8
352.17 K, 14050 kPa, m1 = 4 | 1111.1
352.19 K, 16005 kPa, m1 = 4 | 1111.53
352.65 K, 12002 kPa, m1 = 1 | 1015.47
353.13 K, 18026 kPa, m1 = 2 | 1052.55
353.14 K, 12005 kPa, m1 = 2 | 1050.19
353.16 K, 14002 kPa, m1 = 3 | 1079.82
353.16 K, 14003 kPa, m1 = 2 | 1050.95
353.19 K, 16007 kPa, m1 = 2 | 1051.71
353.2 K, 9995 kPa, m1 = 1 | 1014.63
353.2 K, 13999 kPa, m1 = 1 | 1016.06
353.23 K, 9996 kPa, m1 = 2 | 1049.38
353.23 K, 10007 kPa, m1 = 3 | 1078.28
353.23 K, 16008 kPa, m1 = 3 | 1080.53
353.27 K, 12003 kPa, m1 = 3 | 1079.02
353.28 K, 17998 kPa, m1 = 1 | 1017.65
353.28 K, 18002 kPa, m1 = 3 | 1081.24
372.7 K, 18017 kPa, m1 = 4 | 1100.7
372.71 K, 14005 kPa, m1 = 4 | 1099
372.72 K, 10019 kPa, m1 = 4 | 1097.2
372.75 K, 16043 kPa, m1 = 4 | 1100.12
372.76 K, 12007 kPa, m1 = 4 | 1098.5
372.96 K, 16007 kPa, m1 = 1 | 1003.93
373 K, 18001 kPa, m1 = 1 | 1004.74
373.03 K, 12005 kPa, m1 = 1 | 1002.25
373.03 K, 14001 kPa, m1 = 1 | 1003.21
373.1 K, 11999 kPa, m1 = 2 | 1038.08
373.11 K, 10005 kPa, m1 = 3 | 1066.26
373.11 K, 17997 kPa, m1 = 3 | 1069.36
373.16 K, 10001 kPa, m1 = 1 | 1001.31
373.16 K, 14004 kPa, m1 = 3 | 1067.77
373.17 K, 12008 kPa, m1 = 3 | 1067.01
373.2 K, 14002 kPa, m1 = 2 | 1038.84
373.22 K, 16005 kPa, m1 = 3 | 1068.52
392.6 K, 10002 kPa, m1 = 1 | 986.9
392.65 K, 12008 kPa, m1 = 1 | 987.5
392.65 K, 14005 kPa, m1 = 1 | 988.82
392.65 K, 16001 kPa, m1 = 1 | 989.54
392.65 K, 18001 kPa, m1 = 1 | 990.45
392.77 K, 14002 kPa, m1 = 4 | 1088.52
392.78 K, 15999 kPa, m1 = 4 | 1089.3
392.79 K, 10006 kPa, m1 = 4 | 1086.96
392.81 K, 12002 kPa, m1 = 4 | 1087.71
392.82 K, 18008 kPa, m1 = 4 | 1090.43
393.09 K, 14006 kPa, m1 = 3 | 1054.75
393.17 K, 10001 kPa, m1 = 3 | 1053.22
393.17 K, 16002 kPa, m1 = 3 | 1055.54
393.17 K, 18005 kPa, m1 = 2 | 1027.22
393.18 K, 10003 kPa, m1 = 2 | 1023.83
393.2 K, 11995 kPa, m1 = 2 | 1024.64
393.22 K, 13999 kPa, m1 = 2 | 1025.54
393.23 K, 16003 kPa, m1 = 2 | 1026.34
393.24 K, 12008 kPa, m1 = 3 | 1053.85
393.26 K, 17997 kPa, m1 = 3 | 1056.25
412.86 K, 10007 kPa, m1 = 4 | 1072.35
412.92 K, 12005 kPa, m1 = 4 | 1073.15
412.94 K, 14004 kPa, m1 = 4 | 1073.97
413.01 K, 16003 kPa, m1 = 4 | 1074.76
413.06 K, 18002 kPa, m1 = 4 | 1075.53
413.11 K, 17998 kPa, m1 = 2 | 1012.96
413.12 K, 14007 kPa, m1 = 2 | 1011.33
413.12 K, 16004 kPa, m1 = 1 | 973.21
413.14 K, 10008 kPa, m1 = 2 | 1009.53
413.14 K, 16003 kPa, m1 = 2 | 1012.21
413.14 K, 18004 kPa, m1 = 3 | 1041.53
413.15 K, 18001 kPa, m1 = 1 | 974.15
413.16 K, 10006 kPa, m1 = 1 | 970.45
413.17 K, 12009 kPa, m1 = 1 | 971.23
413.17 K, 16001 kPa, m1 = 3 | 1040.63
413.18 K, 12003 kPa, m1 = 2 | 1010.61
413.18 K, 13998 kPa, m1 = 1 | 972.24
413.2 K, 12005 kPa, m1 = 3 | 1038.72
413.23 K, 10007 kPa, m1 = 3 | 1038.23
